Test results reported in patent US20250034525A1, “CONSTRUCTION METHOD, DETECTION METHOD, AND APPLICATION OF IN VITRO TISSUE MODEL OF DIABETIC CARDIOMYOPATHY” (HUBEI UNIVERSITY, priority 2023, published 2025).

What was measured:
Assay type in all cases: cell-based
[1] = tested on: human engineered heart tissue (hEHT); test: Contractility detection of human EHT by mechanical assay (force transducer, stretch)
Method: 1) After EHT was constructed and cultured for 5-7 days (the medium was changed every other day), the EHTs had good structure and beat regularly.
(§1) 2) EHT was stimulated by 500 μM PA, and for the control group, it contained the same concentration of BSA and ethanol. After 24 hours and 72 hours of stimulation, the supernatant and tissue samples were collected for functional detection.
3) A contractility detection system by mechanical assay: the mechanical characteristics of the bundle were detected by using a mechanical measurement platform, in which the bath, platinum electrode, tissue fixation device, and assembly form were self-designed, and other components such as sensors, amplifiers, digital-to-analog converters, data acquisition software, stepper motors, supporting components, temperature controllers and stimulators were all commercially available and assembled in-house after procurement.
4) Experimental steps for contractility detection by mechanical assay: the instrument was preheated for 30 minutes in advance, and the sensor was calibrated with precision weights by gravity. The Tyrode's Solution containing 1.8 mM CaCl2 was put into a 37° C. water bath for preheating in advance, and the platform was set to 37° C. The bundle was dipped into the Tyrode's Solution, and both ends were fixed with specimen needles, wherein one of which was fixed on the sensor and the other was fixed on the bath. Data were collected after the microstructure was balanced for 2 min. Start the electrical stimulator, and stimulate the bundle electrically at a voltage of 10 V and frequencies of 1, 1.5, 2, 2.5, and 3 Hz. Start the stepper motor to control software to start the programmed stretching program, and stretch the bundle from the initial state (8 mm) by 12% (0.96 mm) of the initial length, stretching 2% (0.16 mm) each time, collecting data for 40 s in each stretching state, and collecting contraction force data under different stretching states. After stretching, end the collection and save the data. The collected data were analyzed by the customized program MATLAB software.

[2] = tested on: human engineered heart tissue (hEHT); test: Optical mapping detection of human EHT electrical conduction
Method: 1) The electrode was made of 0.2 mm platinum wire, and the conductive function was tested using a sealed membrane nickel wire interface.
2) Fluo-4/RHOD2 was dissolved in DMSO (dimethyl sulfoxide) with a volume ratio of 1:1 to prepare a stock solution, which was then added into EHT medium at a ratio of 1:1,000 (working solution), incubated at 37° C. for 20 min, followed by washing with DPBS twice, then incubated with serum-free EHT medium at 37° C.
3) Preparation of medium for imaging: 10 μM Blebbistatin was added into the Tyrode's Solution or serum-free EHT medium in a volume ratio of 1:2,000 for imaging. The medium for imaging was added into a PDMS dish, the EHT was fixed on the dish with a specimen needle, put in a 41° C. temperature control chamber, and the electrode was put on one side of the EHT; an optical mapping camera was used for formal imaging, and the preview speed of 600 ms was recorded in 10 seconds, then recording was conducted in the cases where there was no electrical stimulation and 1 Hz electrical stimulation, respectively, in which the laser intensity was MAX: 12-16%.
The collected data were analyzed by optical mapping software.

[3] = tested on: human pluripotent stem cell-derived cardiomyocytes; test: CCK8 survival rate of human pluripotent stem cell-derived cardiomyocytes (planar monolayer); settings: 250 μM PA, 24 h, versus 30 mM Glucose and 10 nM ET-1 + glucocorticoid, single or combined factors
Method: FIG. 2A-FIG. 2B show the results of confirming the effects of different metabolic factors on survival rate of the cardiomyocytes in the present disclosure.
3) Diluting PA with a final concentration of 250 μM, 500 μM, and 750 μM using cells or EHT medium to stimulate human-derived cardiomyocytes or EHTs. An equivalent amount of ethanol was dissolved in 10% BSA, which was diluted with medium finally as a control solution.
In the present disclosure, firstly, differentiated human cardiomyocytes were paved into planar monolayer cells, and then the cell survival rate was detected by adding 30 mM Glucose, 250 μM PA, 10 nM endothelin (ET-1) and […] glucocorticoid to the medium as single or combined factor(s), respectively, it is identified that the most obvious diabetic stimulus factor for cardiomyocyte injury was PA (FIG. 2A-FIG. 2B). Furthermore, different concentrations of PA were used to stimulate cardiomyocytes, and the concentration and time-dependent effects were evaluated (FIG. 3A). The injury effect of PA was determined through myocardial injury marker LDH (FIG. 3B).

[4] = tested on: human engineered heart tissue (hEHT); test: LDH myocardial injury marker in hEHT model; settings: 500 μM PA, 72 h stimulation
Method: In the present disclosure, an in vitro tissue model of diabetic cardiomyopathy obtained by the above construction method is also provided. According to the disclosure, it is identified that a diabetic cardiomyopathy tissue model is generated with myocardial contractility that ranges from unchanged (1 day) to decreased (3 days), concomitant with the appearance of a myocardial fibrosis phenotype by dynamic stimulation of hEHT with 500 μM PA.
as §1

[5] = tested on: human engineered heart tissue (hEHT); test: H&E staining and immunofluorescence staining of human EHT (fibrosis)
Method: For the morphological and histological observation after Bundle stimulation, the tissue was first treated by conventional paraffin embedding methods, and then the tissue was stained by basic staining and immunofluorescence staining after slicing. The specific steps were as follows: • (1) Cleaning the bundle twice using DPBS without calcium and magnesium ions. • (2) Fixing the bundle with 4% PFA (Paraformaldehyde) at room temperature for 15 min. • (3) Placing the fixed bundle in a paraffin tissue embedding frame and rinsing it with running water for 2 h. • (4) The […] bundle was subjected to gradient dehydrating and wax dipping using a Dewaxer (Hisure Scientific Co., Ltd.) with a total of 12 cylinders under the following conditions: 70% ethanol for 1 h, 80% ethanol for 1 h, 80% ethanol for 0.5 h, 90% ethanol for 0.5 h, 90% ethanol for 0.5 h, 100% ethanol for 0.5 h, xylene for 0.5 h, xylene for 0.5 h, paraffin at 63° C. for 5 min, paraffin at 63° C. for 5 min and paraffin at 63° C. for 5 min. • (5) After the dehydrated Bundle was placed at the bottom of the iron frame molding tool with an appropriate size, the plastic embedding frame was placed on the iron frame molding tool, and then placed on the freezing platform. […] After adding the anti-fluorescence quencher dropwise, the coverslip was covered, and the slide was mounted with nail polish.

[6] = Empagliflozin added with 500 μM PA, 24 hours' stimulation

SMILES | number of abnormal diastolic peaks of PA-stimulated hEHT ([1]; Empagliflozin added with 500 μM PA, under stretch conditions) | APD80 of PA-stimulated human EHT [2, 6] | contraction amplitude of PA-stimulated human EHT [2, 6] | electric signal conduction velocity of PA-stimulated human EHT [2, 6] | cardiomyocyte survival rate (CCK8) [3] | LDH [4] | abnormal relaxation (diastolic) peak ([1]; 500 μM PA, 24 h stimulation) | myocardial relaxation time (diastolic duration) ([1]; 500 μM PA, 24 h stimulation) | positive contractility (contraction force) ([1]; 500 μM PA, 24 h stimulation) | abnormal peaks (diastolic) ([1]; 500 μM PA, 72 h stimulation) | inotropic force (contraction force) ([1]; 500 μM PA, 72 h stimulation) | relaxation time (diastolic duration) ([1]; 500 μM PA, 72 h stimulation) | APD50 ([2]; 500 μM PA, 6 h stimulation) | APD80 ([2]; 500 μM PA, 6 h stimulation) | contraction amplitude ([2]; 500 μM PA, 6 h stimulation) | electric signal conduction velocity ([2]; 500 μM PA, 6 h stimulation) | pathological changes and level of fibrosis inside human EHT ([5]; 24 hours after PA stimulation) | fibrosis inside the heart tissue ([5]; 72 hours after PA stimulation)
OC[C@H]1O[C@@H](c2ccc(Cl)c(Cc3ccc(O[C@H]4CCOC4)cc3)c2)[C@H](O)[C@@H](O)[C@@H]1O [Empagliflozin] | reduced number | improved | effectively recover | effectively recover |  |  |  |  |  |  |  |  |  |  |  |  |  | 
CCCCCCCCCCCCCCCC(=O)O [PA, palmitic acid] |  |  |  |  | lowest | increased significantly | abnormal relaxation peak | prolonged | did not affect | more frequent | significant decrease | more frequent prolongation | obviously increased | obviously increased | not decreased | not decreased | no obvious pathological changes and changes in the level of fibrosis | obvious fibrosis
